Several values for one entry are separate records, joined by “and”; a condition that tells them apart may be missing. Equal values may be shown once.
How the values were obtained:
Type in all cases: physicochemical
[1] = Apparent density of the crystalline forms; conditions: for Apparent density: powder of the crystalline form, paired with the specific surface area of the same line
Text: (§1) The dissolution kinetics promote the xenobiotic bioavailability of this type of active principle. It is also known that the dissolution kinetics are accelerated by increasing the specific surface area. […] Table I below gives the respective values of the apparent density and the specific surface area (BET surface area) for the various crystalline forms.

[2] = Comparative grinding studies (jet micronisation): specific surface area (BET) of batches; conditions: for BET: after grinding, feed pressure, grinding pressure and feed flow differ per batch (batches 1-11, see line of table)
Experimental: In addition, comparative grinding studies, in particular by jet micronisation, were performed so as to obtain powders of the stable and metastable forms having the same specific surface area.
Table II below presents a comparison of the specific surface areas of different batches of the compound of the formula I in which n represents 1 and R in position 7 represents methoxy, obtained by carrying out different grinding conditions.

[3] = Specific surface area (BET) of the crystalline forms; conditions: powder of the crystalline form; paired with the apparent density of the same line
Text: as §1

Row | Compound | Apparent density [1] | BET ([2]; feed 2.0 bar, grinding 1.0 bar, 4.5 kg/h) [m^2/g] | BET ([2]; feed 2.2 bar, grinding 1.2 bar, 5.0 kg/h) [m^2/g] | BET ([2]; feed 2.5 bar, grinding 1.5 bar, 1.5 kg/h) [m^2/g] | BET ([2]; feed 2.5 bar, grinding 1.5 bar, 2.4 kg/h) [m^2/g] | BET ([2]; feed 2.5 bar, grinding 1.5 bar, 6.5 kg/h) [m^2/g] | Specific surface area (BET) after grinding, metastable versus stable form ([2]; jet micronisation, similar operating conditions (feed pressure and grinding pressure)) | Suitability for grinding or micronisation ([2]; metastable versus stable form) | Apparent density of metastable form compared with thermodynamically stable form ([1]; for the same specific surface area value) | Specific surface area or BET [3]
1 | COc1ccc2c(c1)C(/C=C/C(C)=C/C(=O)O)=CC(C)(C)CO2 [stable, 2E,4E-(methoxy-7-dimethyl-3,3-dihydro-2,3-benzoxepin-1-yl-5)-5-methyl-3-pentadien-2,4-oic acid] | 0.18 and 0.29 and 0.16 |  |  |  |  |  |  |  |  | 
2 | COc1ccc2c(c1)C(/C=C/C(C)=C/C(=O)O)=CC(C)(C)CO2 [metastable, 2E,4E-(methoxy-7-dimethyl-3-dihydro-2,3-benzoxepin-1-yl-5)-5-methyl-3-pentadien-2,4-oic Acid] | 0.30 | 6.2 | 7.2 | 10.2 | 9.1 | 9.2 | greater specific surface area (BET) | more suitable for grinding or micronisation | greater apparent density | 3.1 m^2/g and 2.8 m^2/g

— US7470719B2, “Metastable benzoxepne derivatives which can be used in the treatment of dyslipidaemia a therosclerosis and diabetes, pharmaceutical compositions comprising them and processes for the preparation thereof” (Merck Patent GmbH, priority 2002, dated 2008)
